Test results as given in US5362752A, “Chemical compounds” (Merck & Co., Inc., priority 1993, dated 1994).

Biological target: T1, squalene synthase (Homo sapiens, UniProt P37268)
T1 construct: PREPARATION OF HUMAN HEPG2 CELL ENZYME; host or cells: HepG2 (human hepatoblastoma), sonicated cell extract
T1 sequence (P37268 1-417): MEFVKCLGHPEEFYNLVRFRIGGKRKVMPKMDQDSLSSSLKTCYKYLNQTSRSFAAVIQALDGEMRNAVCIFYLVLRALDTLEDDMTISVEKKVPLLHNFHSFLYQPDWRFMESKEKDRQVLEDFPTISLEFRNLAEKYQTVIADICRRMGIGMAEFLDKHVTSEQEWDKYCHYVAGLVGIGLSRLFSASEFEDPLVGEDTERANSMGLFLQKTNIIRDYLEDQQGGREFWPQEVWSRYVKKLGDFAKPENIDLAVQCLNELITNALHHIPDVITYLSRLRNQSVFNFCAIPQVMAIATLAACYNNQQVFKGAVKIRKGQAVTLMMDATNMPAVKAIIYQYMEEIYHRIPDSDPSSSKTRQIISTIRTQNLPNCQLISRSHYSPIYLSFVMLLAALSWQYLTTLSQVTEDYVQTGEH
Experiment: Squalene synthase assay with human HepG2 cell enzyme
Format: biochemical
Details: HepG2 enzyme preparation, 3 μM 3H-farnesyl pyrophosphate substrate, 30° C., 20 minutes; read-out: IC50 (squalene synthase inhibition)
Procedure: The intrinsic squalene synthase inhibitory activity of the compounds of this invention was measured by the standard in vitro protocol described below:
PREPARATION OF HUMAN HEPG2 CELL ENZYME
1. Source: HEPG2 CELL LINE (Liver, hepatoblastoma, Human) ATCC No. HB 8065
Culture Medium: Minimum essential medium (MEM) with non-essential amino acids, sodium pyruvate, and 10% fetal bovine serum. The medium was changed twice weekly. […] The growth medium is prepared as listed below.
48 hrs. prior to harvest, switch cells grown in MEM with Fetal Calf serum to MEM with 10% delipidated serum.
Remove medium, wash with PBS, add fresh trypsin (0.25%)-EDTA (0.02%) with Hank's Balanced Salt solution, rinse and remove. Incubate flask at 37° C. until cells detach. Add 6 mL of MEM medium per flask to suspend cells and combine into centrifuge tube. […]
For each reaction, 55 μL of buffer mixture was taken with 5 μL of an inhibitor solution in DMSO and 10 μL of diluted enzyme (1 to 250 as described in the enzyme preparation; the final protein concentration of enzyme in the assay is 2 μg per mL.). […] 150 μL of heptane layer was then removed into a 96 deep well plate and mixed with 150 μL of scintillation fluid and the radioactivity was determined by liquid scintillation counting. […]
IC50 values were determined by plotting the log of the concentration of the test compound versus the percentage inhibition. […]

## C=C(CCC(=O)C(O)C(OC(=O)/C=C/C(C)CC(C)CC)C(=O)O)C(OC(C)=O)C(C)Cc1ccccc1 (stereo not shown) [Composition A]
  IC50: < 2 µM
